What was measured:
[1] = target: T1, Transcription initiation factor TFIID subunit 1 [1504-1635] (Homo sapiens, UniProt P21675); test: TR-FRET Binding Assay
T1 construct: 1504-1635
T1 sequence (P21675 whole entry): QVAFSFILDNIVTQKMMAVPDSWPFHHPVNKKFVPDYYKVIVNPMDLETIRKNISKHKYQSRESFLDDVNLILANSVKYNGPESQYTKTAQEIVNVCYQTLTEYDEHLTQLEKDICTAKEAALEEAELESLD
Method: After a 10 minute incubation at room temperature, biotin-ligand (0.04 uM final) was added. […] After forty minutes of equilibration at room temperature, the plates were read on an Envision instrument and IC50s calculated using a four parameter logistic model (XLFIT).

[2] = target: T2, Transcription initiation factor TFIID subunit 1 [1381-1497] (Homo sapiens, UniProt P21675); test: TAF1-BD1 TR-FRET Binding Assay
T2 construct: 1381-1497
T2 sequence (P21675 whole entry): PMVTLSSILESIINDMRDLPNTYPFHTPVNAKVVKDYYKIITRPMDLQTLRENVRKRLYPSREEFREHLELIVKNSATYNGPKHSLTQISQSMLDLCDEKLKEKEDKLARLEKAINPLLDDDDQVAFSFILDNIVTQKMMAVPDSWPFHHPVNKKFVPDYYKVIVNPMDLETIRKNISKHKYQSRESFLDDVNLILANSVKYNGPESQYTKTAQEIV
Method: Specifically, in a 384 well ProxiPlate, TAF1-BDI (0.08 uM final) in 50 mM HEPES (pH 7.5; final), 50 mM NaCl (final), 1 mM TCEP (final), 0.1 mg/mL BSA (final), and 0.069 mM Brij-35 (final) was added either in the presence of DMSO (final 0.2% DMSO) or compound dilution series in DMSO. After a 10 minute incubation at room temperature, biotin-ligand (0.08 uM final) was added. After 10 minutes incubation at room temperature, a mixture Eu-W1024 Anti-6×His antibody (Perkin Elmer ADO 110) and SureLight Streptavidin-Allophycocyanin (SA-APC, Perkin Elmer CR130-100) were added to final concentrations of 0.2 nM antibody and 0.05 uM SA-APC, respectively. After forty minutes of equilibration at room temperature, the plates were read on an Envision instrument and IC50s calculated using a four parameter logistic model (XLFIT).

IC50 [1] [nM] | IC50 [2] [nM] | SMILES
86.3 | 209 | CCOC(=O)c1c(C)[nH]c2c(=O)n(C)cc(C#CC(O)(c3ccc(N(C)C)cc3)C(F)(F)F)c12 (stereo unspecified) [US10202378, Example 3]
72.7 | 352 | CCOC(=O)c1c(C)[nH]c2c(=O)n(C)cc(C#CC(C)(O)C3(C)CC3)c12 (stereo unspecified) [US10202378, Example 4]
181 | 607 | CCOC(=O)c1c(C)[nH]c2c(=O)n(C)cc(C#CC(C)(O)C3CCOC3)c12 (stereo unspecified) [US10202378, Example 7]
58.9 | 2230 | CCOC(=O)c1c(C)[nH]c2c(=O)n(C)cc(C#CC3(O)CCN(C(=O)CC)CC3)c12 [US10202378, Example 10]
80 | 1490 | CCOC(=O)c1c(C)[nH]c2c(=O)n(C)cc(C#CC3(O)CCN(C(C)=O)CC3)c12 [US10202378, Example 11]
14800 | > 20000 | CCOC(=O)c1c(C)[nH]c2c(=O)n(C)cc(C#CC(C)(O)CNc3ccccc3)c12 (stereo unspecified) [US10202378, Example 14]
50.9 | 303 | CCOC(=O)c1c(C)[nH]c2c(=O)n(C)cc(C#CC(C)(O)c3cccc(C)c3)c12 (stereo unspecified) [US10202378, Example 29]
155 | 8660 | CCOC(=O)c1c(C)[nH]c2c(=O)n(CC3CC3)cc(C#CC(C)(C)O)c12 [US10202378, Example 52]
135 | 826 | CCOC(=O)c1c(C)[nH]c2c(=O)n(C)cc(C#CC(C)(O)CC)c12 (stereo unspecified) [US10202378, Example 65]
100 | 798 | CCOC(=O)c1c(C)[nH]c2c(=O)n(C)cc(C#CC(C)(O)CO)c12 (stereo unspecified) [US10202378, Example 66]
4110 | 5210 | CCOC(=O)c1c(C)[nH]c2c(=O)n(C)cc(C#CC(C)(C)N)c12 [US10202378, Example 67]
122 | 521 | CCOC(=O)c1c(C)[nH]c2c(=O)n(C)cc(C#CC(C)(O)c3nccs3)c12 (stereo unspecified) [US10202378, Example 68]
49 | 243 | CCOC(=O)c1c(C)[nH]c2c(=O)n(C)cc(C#CC(C)(O)C3CC3)c12 (stereo unspecified) [US10202378, Example 77]
47.9 | 251 | CCC(C)(C)OC(=O)c1c(C)[nH]c2c(=O)n(C)cc(C#CC(C)(O)C3CC3)c12 (stereo unspecified) [US10202378, Example 138]
37.5 | 350 | CC(=O)NCCCOC(=O)c1c(C)[nH]c2c(=O)n(C)cc(C#CC(C)(O)C3CC3)c12 (stereo unspecified) [US10202378, Example 140]
52.8 | 160 | Cc1cc([C@](C)(O)C#Cc2cn(C)c(=O)c3[nH]c(C)c(C(=O)OC(C)C(C)C)c23)no1 (stereo partly specified) [US10202378, Example 142]
20.1 | 267 | CC(=O)N1CCC(COC(=O)c2c(C)[nH]c3c(=O)n(C)cc(C#CC(C)(C)O)c23)CC1 [US10202378, Example 144]
53.3 | 272 | CCC(C)C(C)OC(=O)c1c(C)[nH]c2c(=O)n(C)cc(C#CC(C)(C)O)c12 (stereo unspecified) [US10202378, Example 145]
53.6 | 235 | Cc1[nH]c2c(=O)n(C)cc(C#CC(C)(C)O)c2c1C(=O)OC(C)C(C)C (stereo unspecified) [US10202378, Example 152]
52.8 | 274 | Cc1[nH]c2c(=O)n(C)cc(C#CC(C)(C)O)c2c1C(=O)OCC1CC1 [US10202378, Example 155]
51.1 | 274 | Cc1[nH]c2c(=O)n(C)cc(C#CC(C)(O)c3ccccc3)c2c1C(=O)OC(C)C (stereo unspecified) [US10202378, Example 161]
1730 | 4420 | CN(C)C(=O)c1c[nH]c2c(=O)n(C)cc(C#CC(C)(C)O)c12 [US10202378, Example 171]
73.5 | 425 | Cc1[nH]c2c(=O)n(C)cc(C#CC(C)(O)C3CC3)c2c1-c1nnc(CO)o1 (stereo unspecified) [US10202378, Example 206]

Source: BindingDB's records for patent US10202378 (Genentech, 2019)
